Measurements from patent US20070128217A1 (priority 2003, published 2007).

Tested on: rabbit serum obtained by immunizing a rabbit with the SARS-CoV strain Frankfurt 1
Format: binding
Set-up: Binding of a rabbit serum to linear peptides / Binding of a rabbit serum to looped peptides / Rabbit serum linear peptides / Rabbit serum looped peptides / Binding of a rabbit serum to linear peptides of protein N of SARS-CoV Urbani (Rabbit serum linear peptides) / Binding of a rabbit serum to looped/cyclic peptides of protein N of SARS-CoV Urbani (Rabbit serum looped peptides): unit not given here

Row | Sequence | Rabbit serum linear peptides | Rabbit serum looped peptides | Binding of a rabbit serum to linear peptides | Binding of a rabbit serum to looped peptides
1 | ARCWYLHEGHQTAAF | 0.3 | 0.6 | – | –
2 | VIGAVIIRGHLRMAG | 1.5 | 0.6 | – | –
3 | KQLLEQWNLVIGFLP | 0.0 | 0.1 | – | –
4 | SPFHPLADNKFALTC | 0.4 | 0.5 | – | –
5 | LHEGHQTAAFRDVLV | 0.5 | 0.7 | – | –
6 | HLRMAGHPLGRCDIK | 0.0 | 0.5 | – | –
7 | EELKQLLEQWNLVIG | 0.4 | 0.4 | – | –
8 | IRGHLRMAGHPLGRC | 1.2 | 0.4 | – | –
9 | FAGTHITMTTVYHIT | – | – | 0.6 | 0.4
10 | TLGSITAQPVKIDNA | – | – | 0.8 | 0.4
11 | EGNSPFHPLADNKFA | 0.7 | 0.7 | – | –
